Laboratory results: ChEMBL document CHEMBL3886524, “Heteroaryl pyridone and aza-pyridone compounds with electrophilic functionality” (2016)

Molecular target: Tyrosine-protein kinase BTK (Homo sapiens, UniProt Q06187)
Assay: Biochemical Btk Assay: A generalized procedure for a standard biochemical Btk, Kinase Assay that can be used to test Formula I compounds is as follows. A master mix minus Btk enzyme is prepared containing 1x Cell Signaling kinase buffer (25 mM Tris-HCl, pH 7.5, 5 mM beta-glycerophosphate, 2 mM dithiothreitol, 0.1 mM Na3VO4, 10 mM MgCl2), 0.5 uM Promega PTK Biotinylated peptide substrate 2, and 0.01% BSA. A master mix plus Btk enzyme is prepared containing 1x Cell Signaling kinase buffer, 0.5 uM PTK Biotinylated peptide substrate 2, 0.01% BSA, and 100 ng/well (0.06 mU/well) Btk enzyme. Btk enzyme is prepared as follows: full length human wildtype Btk (accession number NM-000061) with a C-terminal V5 and 6xHis tag was subcloned into pFastBac vector (Invitrogen/Life Technologies) for making baculovirus carrying this epitope-tagged Btk.

Chain of Tyrosine-protein kinase BTK (Q06187 whole entry): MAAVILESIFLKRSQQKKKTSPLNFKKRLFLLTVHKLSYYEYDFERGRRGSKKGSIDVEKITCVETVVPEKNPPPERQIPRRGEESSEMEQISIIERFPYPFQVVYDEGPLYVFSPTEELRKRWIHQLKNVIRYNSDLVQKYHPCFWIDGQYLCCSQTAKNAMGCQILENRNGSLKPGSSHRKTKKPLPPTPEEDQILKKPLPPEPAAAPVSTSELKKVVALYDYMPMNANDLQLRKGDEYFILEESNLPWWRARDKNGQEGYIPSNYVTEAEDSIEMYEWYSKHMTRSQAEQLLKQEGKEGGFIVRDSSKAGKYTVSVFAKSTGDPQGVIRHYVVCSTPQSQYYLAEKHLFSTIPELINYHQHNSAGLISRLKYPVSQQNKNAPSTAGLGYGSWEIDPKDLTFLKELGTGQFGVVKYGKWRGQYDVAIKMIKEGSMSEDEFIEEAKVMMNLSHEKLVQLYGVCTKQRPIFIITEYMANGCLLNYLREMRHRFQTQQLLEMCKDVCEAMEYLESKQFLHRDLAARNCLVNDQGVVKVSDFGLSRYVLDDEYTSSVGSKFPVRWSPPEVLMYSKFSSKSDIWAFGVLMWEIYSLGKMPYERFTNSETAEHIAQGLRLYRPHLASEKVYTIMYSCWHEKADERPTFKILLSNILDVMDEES

C=C(C#N)C(=O)NCCOc1cccc(Nc2cc(-c3ccnc(N4CCn5c(cc6c5CC(C)(C)C6)C4=O)c3CO)cn(C)c2=O)n1 was tested, and the Ki was 1.7 nM.
C=CC(=O)N[C@H]1CCCN(c2cccc(Nc3cc(-c4ccnc(N5CCn6c(cc7c6CC(C)(C)C7)C5=O)c4CO)cn(C)c3=O)n2)C1 was tested, and the Ki was 0.888 nM.
With C=CC(=O)NCCN(C)c1cccc(Nc2cc(-c3ccnc(N4CCn5c(cc6c5CC(C)(C)C6)C4=O)c3CO)cn(C)c2=O)n1 the Ki was 0.683 nM.
With CC#CC(=O)NCCOc1cccc(Nc2cc(-c3ccnc(N4CCn5c(cc6c5CC(C)(C)C6)C4=O)c3CO)cn(C)c2=O)n1 the Ki was 2.37 nM.
C=CC(=O)NCCNc1cccc(Nc2cc(-c3ccnc(N4CCn5c(cc6c5CC(C)(C)C6)C4=O)c3CO)cn(C)c2=O)n1 gave a Ki of 4.33 nM.
